From patent US8784782B2 (Senomyx, Inc., priority 2005, dated 2014) come the findings set out here.

The target in the first assay is T1, hT1R1/hT1R3 umami receptor expressed in an HEK293 cell line (Homo sapiens, UniProt Q7RTX0+Q7RTX1).
T1 construct: expressed in transfected cells; host or cells: HEK293 cell line derivative, hT1R1/hT1R3-HEK293-Gα15, clone I-17, mifepristone-induced
T1 sequence (Q7RTX1 21-841): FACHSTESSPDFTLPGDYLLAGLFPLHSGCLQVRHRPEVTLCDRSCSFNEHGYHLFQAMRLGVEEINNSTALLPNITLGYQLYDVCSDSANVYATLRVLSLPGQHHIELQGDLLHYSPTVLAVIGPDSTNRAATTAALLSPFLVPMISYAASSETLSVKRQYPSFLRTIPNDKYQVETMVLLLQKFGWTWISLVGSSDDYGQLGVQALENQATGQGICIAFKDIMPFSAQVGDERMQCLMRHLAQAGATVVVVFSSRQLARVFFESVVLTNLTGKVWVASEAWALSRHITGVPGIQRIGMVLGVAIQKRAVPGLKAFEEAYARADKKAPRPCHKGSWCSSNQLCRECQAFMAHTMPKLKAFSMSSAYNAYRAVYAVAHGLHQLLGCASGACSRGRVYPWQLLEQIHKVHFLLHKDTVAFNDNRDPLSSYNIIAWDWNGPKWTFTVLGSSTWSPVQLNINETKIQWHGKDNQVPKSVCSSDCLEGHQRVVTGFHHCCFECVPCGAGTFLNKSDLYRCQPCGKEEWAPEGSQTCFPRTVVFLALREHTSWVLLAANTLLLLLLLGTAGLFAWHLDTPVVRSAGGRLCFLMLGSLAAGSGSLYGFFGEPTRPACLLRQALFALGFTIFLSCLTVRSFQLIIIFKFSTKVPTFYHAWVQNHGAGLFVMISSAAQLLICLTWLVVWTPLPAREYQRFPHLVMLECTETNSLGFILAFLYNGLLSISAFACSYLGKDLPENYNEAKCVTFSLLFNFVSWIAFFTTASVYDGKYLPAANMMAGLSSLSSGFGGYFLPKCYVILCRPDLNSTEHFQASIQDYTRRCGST
T1 sequence (Q7RTX0 21-852): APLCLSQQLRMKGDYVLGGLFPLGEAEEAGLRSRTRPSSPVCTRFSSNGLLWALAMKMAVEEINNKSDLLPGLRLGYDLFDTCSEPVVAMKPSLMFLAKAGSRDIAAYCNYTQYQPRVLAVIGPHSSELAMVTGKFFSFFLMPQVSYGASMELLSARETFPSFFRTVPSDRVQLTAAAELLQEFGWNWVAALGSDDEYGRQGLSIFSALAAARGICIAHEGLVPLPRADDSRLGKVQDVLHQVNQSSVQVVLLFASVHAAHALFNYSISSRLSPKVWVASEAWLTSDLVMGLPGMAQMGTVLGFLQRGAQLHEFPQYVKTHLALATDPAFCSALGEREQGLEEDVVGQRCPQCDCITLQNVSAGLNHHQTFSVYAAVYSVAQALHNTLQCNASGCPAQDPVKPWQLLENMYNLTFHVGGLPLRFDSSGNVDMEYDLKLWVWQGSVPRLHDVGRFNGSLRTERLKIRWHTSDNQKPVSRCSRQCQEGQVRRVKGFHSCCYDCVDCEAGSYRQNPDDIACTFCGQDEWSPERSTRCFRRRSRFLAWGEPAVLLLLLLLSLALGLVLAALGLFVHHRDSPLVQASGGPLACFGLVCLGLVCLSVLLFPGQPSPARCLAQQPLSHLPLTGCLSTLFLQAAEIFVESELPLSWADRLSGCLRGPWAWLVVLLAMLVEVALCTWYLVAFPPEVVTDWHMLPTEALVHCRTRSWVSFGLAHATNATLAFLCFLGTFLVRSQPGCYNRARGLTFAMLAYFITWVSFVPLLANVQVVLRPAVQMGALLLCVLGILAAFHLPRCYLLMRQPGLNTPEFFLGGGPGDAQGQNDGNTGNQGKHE
Briefly: In vitro hT1R1/hT1R3 umami taste receptor activation assay (FLIPR, dose response). It is filed as cell-based. The note with it: Table A, triazoles; read-out: Umami EC50. As for the experimental part:
Activity was determined using an automated fluorometric imaging assay on a FLIPR instrument ([…], Molecular Devices, Sunnyvale, Calif.) (designated FLIPR assay). […] After replacement with 25 μl D-PBS, stimulation was performed in the FLIPR instrument and at room temperature by the addition of 25 μl D-PBS supplemented with different stimuli at concentrations corresponding to twice the desired final level. Receptor activity was quantified by determining the maximal fluorescence increases (using a 480 nm excitation and 535 nm emission) after normalization to basal fluorescence intensity measured before stimulation.
Activities were normalized to the response obtained with 60 mM monosodium glutamate, a concentration that elicits maximum receptor response.
On to `COc1ccc(-c2n[nH]c(SCc3ccccn3)n2)cc1` [Example A6, 2-((5-(4-methoxyphenyl)-2H-1,2,4-triazol-3-ylthio)methyl)pyridine], for which the EC50 amounted to 0.52 µM.

As to `Cc1cccc(-c2n[nH]c(SCc3ccccn3)n2)c1` [Example A8, 2-((5-m-tolyl-2H-1,2,4-triazol-3-ylthio)methyl)pyridine], the EC50 worked out at 0.94 µM.

As for `COc1ccc(-c2n[nH]c(SCc3ccc(C)cn3)n2)c(OC)c1` [Example A9, 2-((5-(2,4-dimethoxyphenyl)-2H-1,2,4-triazol-3-ylthio)methyl)-5-methylpyridine], the EC50 amounted to 1.07 µM.

For the compound `c1ccc(CSc2nc(-c3cccc4c3OCO4)n[nH]2)nc1` [Example A11, 2-((5-(benzo[d][1,3]dioxol-4-yl)-2H-1,2,4-triazol-3-ylthio)methyl)pyridine], the EC50 turned out to be 1.35 µM.

Turning to `Clc1ccccc1-c1n[nH]c(SCc2ccccn2)n1` [Example A14, 2-((5-(2-chlorophenyl)-2H-1,2,4-triazol-3-ylthio)methyl)pyridine], the EC50 worked out at 2.48 µM.

Take `Cc1ccoc1-c1n[nH]c(SCc2ccccn2)n1` [Example A21, 2-((5-(3-methylfuran-2-yl)-2H-1,2,4-triazol-3-ylthio)methyl)pyridine]: the EC50 amounted to 9.41 µM.

As to `COc1ccccc1-c1n[nH]c(SCCc2ccccn2)n1` [Example A22, 2-(2-(5-(2-methoxyphenyl)-2H-1,2,4-triazol-3-ylthio)ethyl)pyridine], the EC50 stood at 7.38 µM.

As for `Cn1c(Cc2ccccc2)nnc1SCc1ccc(Cl)c(Cl)c1` [Example A23, 3-benzyl-5-(3,4-dichlorobenzylthio)-4-methyl-4H-1,2,4-triazole], the EC50 was 13 µM.

Turning to `Cn1c(Cc2ccccc2)nnc1SCc1ccc(Cl)cc1Cl` [Example A24, 3-benzyl-5-(2,4-dichlorobenzylthio)-4-methyl-4H-1,2,4-triazole], the EC50 came out at 6.05 µM.

For the compound `CCn1c(SCc2cccnc2)nnc1-c1cccc(C)c1` [Example A25, 3-((4-ethyl-5-m-tolyl-4H-1,2,4-triazol-3-ylthio)methyl)pyridine], the EC50 is 13.1 µM.

In the case of `CCn1c(SCc2cccnc2)nnc1-c1cc2ccccc2cc1O` [Example A26, 3-(4-ethyl-5-(pyridin-3-ylmethylthio)-4H-1,2,4-triazol-3-yl)naphthalen-2-ol], the EC50 stood at 1.89 µM.

Regarding `Cn1c(Cc2ccsc2)nnc1SCc1ccc(Cl)cc1` [Example A27, 3-(4-chlorobenzylthio)-4-methyl-5-(thiophen-3-ylmethyl)-4H-1,2,4-triazole], the EC50 was 7.92 µM.

Staying with this assay, now noted: Table B, pyridazines; read-out: Umami EC50.
Consider `c1ccc(CSc2ccc(-c3ccc4c(c3)OCCO4)nn2)nc1` [Example B1, 3-(2,3-dihydrobenzo[b][1,4]dioxin-yl)-6-(pyridin-2-ylmethylthio)pyridazine], for which the EC50 came out at 0.6 µM.

As for `COc1ccc(-c2ccc(SCc3ccccn3)nn2)cc1OC` [Example B2, 3-(3,4-dimethoxyphenyl)-6-(pyridin-2-ylmethylthio)pyridazine], the EC50 was 1.7 µM.

For the compound `c1cncc(CSc2ccc(-c3ccc4c(c3)OCCO4)nn2)c1` [Example B3, 3-(2,3-dihydrobenzo[b][1,4]dioxin-6-yl)-6-(pyridin-3-ylmethylthio)pyridazine], the EC50 is 8.4 µM.

The same assay, now with this note: Table C, tetrazole; read-out: Umami EC50.
Consider `CSc1ccc(-c2nnn(Cc3ccccn3)n2)cc1` [Example C1, 2-((5-(4-(methylthio)phenyl)-2H-tetrazol-2-yl)methyl)pyridine], for which the EC50 turned out to be 5.91 µM.

The same assay, now with this note: read-out: EC50 for activation of a hT1R1/hT1R3 umami receptor expressed in an HEK293 cell line.
Consider `COc1cc(C)ccc1-c1nc(SCc2ccccn2)n[nH]1` [Example 1, 2-((5-(2-methoxy-4-methylphenyl)-1H-1,2,4-triazol-3-ylthio)methyl)pyridine], for which the EC50 stood at 0.08 µM.

Consider `COc1cc(C)ccc1-c1nc(SCc2ccc(C)cn2)n[nH]1` [Example 2, 2-((5-(2-methoxy-4-methylphenyl)-1H-1,2,4-triazol-3-ylthio)methyl)-5-methylpyridine], for which the EC50 is 0.49 µM.

As for `CCc1ccc(-c2nc(SCc3ccccn3)n[nH]2)cc1` [Example 4, 2-((5-(4-Ethylphenyl)-1H-1,2,4-triazol-3-ylthio)methyl)pyridine], the EC50 came to 0.14 µM.

For the compound `CCc1ccc(-c2nc(SCc3ccccn3)n[nH]2)c(C)c1` [Example 10, 2-((5-(4-Ethyl-2-methylphenyl)-1H-1,2,4-triazol-3-ylthio)methyl)pyridine], the EC50 was 0.02 µM.

For `Cc1ccc(-c2cn(Cc3ccccn3)nn2)cc1` [Example 11, 2-((4-p-Tolyl-1H-1,2,3-triazol-1-yl)methyl)pyridine], the EC50 worked out at 4.66 µM.

For the compound `Cc1ccc(-c2cn(CCc3ccccn3)nn2)cc1` [Example 12, 2-(2-(4-p-Tolyl-1H-1,2,3-triazol-1-yl)ethyl)pyridine], the EC50 was 16.4 µM.

As for `Cc1ccc(-c2ccc(SCc3ccccn3)nn2)c(C)c1` [Example 13, 3-(2,4-Dimethylphenyl)-6-(pyridin-2-ylmethylthio)pyridazine], the EC50 was 1.5 µM.

Regarding `Cc1ccc(-c2ccc(SCc3ccccc3)nn2)c(C)c1` [Example 14, 3-(Benzylthio)-6-(2,4-dimethylphenyl)pyridazine], the EC50 was 2.7 µM.

`Cc1ccc(-c2ccc(OCc3ccccn3)nn2)c(C)c1` [Example 15, 3-(2,4-Dimethylphenyl)-6-(pyridin-2-ylmethoxy)pyridazine]: the EC50 is 6.9 µM.

As for `Cc1ccc(-c2nnc(NCc3ccccn3)o2)c(C)c1` [Example 16, 5-(2,4-Dimethylphenyl)-N-(pyridin-2-ylmethyl)-1,3,4-oxadiazol-2-amine], the EC50 turned out to be 10.3 µM.

As to `Cc1ccc(-c2ccc(SCc3cccnc3)nn2)c(C)c1` [Example 17], the EC50 was determined as 15.2 µM.

As for `CCc1ccc(-c2nc(SCc3ccccn3)n[nH]2)c(OC)c1` [Example 18, 2-((5-(4-ethyl-2-methoxyphenyl)-1H-1,2,4-triazol-3-ylthio)methyl)pyridine], the EC50 stood at 0.05 µM.

In a further assay the target is T1, hT1R1/hT1R3 umami receptor expressed in an HEK293 cell line. Put plainly: Umami taste enhancement activity assay (EC50 ratio vs. MSG, FLIPR). In kind it is cell-based. The note with it: compound present at 0.03 μM. As for the experimental part: A series of measurements of the dose response is run in solutions comprising MSG alone, then a second dose response is run with MSG in combination with predetermined amounts of a candidate compound of Formula (I) at the same time.
Typical compound concentrations tested were 30 μM, 10 μM, 3 μM, 1 μM, 0.3 μM, 0.1 μM and 0.03 μM. The relative efficacy of compounds of Formula (I) at enhancing the receptor was determined by calculating the magnitude of a shift in the EC50 for monosodium glutamate. Enhancement was defined as a ratio (EC50R) corresponding to the EC50 of monosodium glutamate, determined in the absence of the test compound, divided by the EC50 of monosodium glutamate, determined in the presence of the test compound.
Stated alternatively, “EC50 ratio” as compared to MSG is calculated based on the following definitions: EC50 Ratio vs. MSG=EC50 (MSG)/EC50 (MSG+[Compound]) • wherein “[compound]” refers to the concentration of the compound of Formula (I) used to elicit (or enhance or potentiate) the MSG dose response.
Take `COc1cc(C)ccc1-c1nc(SCc2ccccn2)n[nH]1` [Example 1, 2-((5-(2-methoxy-4-methylphenyl)-1H-1,2,4-triazol-3-ylthio)methyl)pyridine]: the “EC50 ratio (enhanced the effectiveness of monosodium glutamate)” value was 5.9.

On to `CCc1ccc(-c2nc(SCc3ccccn3)n[nH]2)cc1` [Example 4, 2-((5-(4-Ethylphenyl)-1H-1,2,4-triazol-3-ylthio)methyl)pyridine], for which the “EC50 ratio (enhanced the effectiveness of monosodium glutamate)” value is 4.4.
